Experimental data as given in patent US10806785B2, “Immunomodulator compounds and methods of use” (Incyte Corporation, priority 2016, dated 2020).

Each compound was assayed against PD-1/PD-L1 (Homo sapiens (Human), UniProt Q9NZQ7) (assay: PD-1/PD-L1 binding assay (HTRF)).
Procedure: The assays were conducted in a standard black 384-well polystyrene plate with a final volume of 20 μL. Inhibitors were first serially diluted in DMSO and then added to the plate wells before the addition of other reaction components. The final concentration of DMSO in the assay was 1%. The assays were carried out at 25° C. in the PBS buffer (pH 7.4) with 0.05% Tween-20 and 0.1% BSA. Recombinant human PD-L1 protein (19-238) with a His-tag at the C-terminus was purchased from AcroBiosystems (PD1-H5229). Recombinant human PD-1 protein (25-167) with Fc tag at the C-terminus was also purchased from AcroBiosystems (PD1-H5257). PD-L1 and PD-1 proteins were diluted in the assay buffer and 10 μL was added to the plate well. Plates were centrifuged and proteins were preincubated with inhibitors for 40 minutes. The incubation was followed by the addition of 10 μL of HTRF detection buffer supplemented with Europium cryptate-labeled anti-human IgG (PerkinElmer-AD0212) specific for Fc and anti-His antibody conjugated to SureLight®-Allophycocyanin (APC, PerkinElmer-AD0059H). After centrifugation, the plate was incubated at 25° C. for 60 min. before reading on a PHERAstar FS plate reader (665 nm/620 nm ratio). Final concentrations in the assay were […], 10 nM PD-L1, 1 nM europium anti-human IgG and 20 nM anti-His-Allophycocyanin. IC50 determination was performed by fitting the curve of percent control activity versus the log of the inhibitor concentration using the GraphPad Prism 5.0 software.

Sequence of PD-1/PD-L1 (Q9NZQ7 19-238): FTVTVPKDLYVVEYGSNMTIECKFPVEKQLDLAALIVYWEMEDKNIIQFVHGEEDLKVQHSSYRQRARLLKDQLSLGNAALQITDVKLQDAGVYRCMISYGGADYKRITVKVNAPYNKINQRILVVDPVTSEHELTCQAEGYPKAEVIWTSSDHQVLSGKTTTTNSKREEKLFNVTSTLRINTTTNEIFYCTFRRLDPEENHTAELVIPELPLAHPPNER

Structure (SMILES)	IC50 [nM]
Cn1c(C(=O)Nc2cccc(-c3cccc(NC(=O)c4nc5c(n4C)CCN(C[C@H]4CC[C@H](C(=O)O)CC4)C5)c3Cl)c2Cl)nc2c1CCN(CC1CC1)C2 [Example 63, trans-4-((2-(2,2′-dichloro-3′-(5-(cyclopropylmethyl)-1-methyl-4,5,6,7-tetrahydro-1H-imidazo[4,5-c]pyridine-2-carboxamido)biphenyl-3-ylcarbamoyl)-1-methyl-6,7-dihydro-1H-imidazo[4,5-c]pyridin-5(4H)-yl)methyl)cyclohexane-1-carboxylic acid]	≤ 10
Cc1c(NC(=O)c2cc(CN3CCCC3)cn(C)c2=O)cccc1-c1cccc(NC(=O)c2nc3c(n2C)CCN(C[C@H](C)O)C3)c1Cl [Example 52, (S)—N-(2-chloro-2′-methyl-3′-(1-methyl-2-oxo-5-(pyrrolidin-1-ylmethyl)-1,2-dihydropyridine-3-carboxamido)biphenyl-3-yl)-5-(2-hydroxypropyl)-1-methyl-4,5,6,7-tetrahydro-1H-imidazo[4,5-c]pyridine-2-carboxamide]	≤ 10
CN1CCc2c(nc(C(=O)Nc3cccc(-c4cccc(NC(=O)c5nc6c(n5C)CCN(CCO)C6)c4Cl)c3C#N)n2C)C1 [Example 38, N-(2-chloro-2′-cyano-3′-(1,5-dimethyl-4,5,6,7-tetrahydro-1H-imidazo[4,5-c]pyridine-2-carboxamido)biphenyl-3-yl)-5-(2-hydroxyethyl)-1-methyl-4,5,6,7-tetrahydro-1H-imidazo[4,5-c]pyridine-2-carboxamide]	≤ 10

Now from value to compound:

IC50 [nM]	Structure (SMILES)
≤ 10	CCN1CCc2c(nc(C(=O)Nc3cccc(-c4cccc(NC(=O)c5nc6c(n5C)CCN(C5CCC(C)(C(=O)O)CC5)C6)c4C)c3Cl)n2C)C1 (stereo not shown) [Example 105, 4-(2-((2′-chloro-3′-(5-ethyl-1-methyl-4,5,6,7-tetrahydro-1H-imidazo[4,5-c]pyridine-2-carboxamido)-2-methyl-[1,1′-biphenyl]-3-yl)carbamoyl)-1-methyl-1,4,6,7-tetrahydro-5H-imidazo[4,5-c]pyridin-5-yl)-1-methylcyclohexane-1-carboxylic acid]
≤ 10	C[C@H](O)CN1CCc2c(nc(C(=O)Nc3cccc(-c4cccc(NC(=O)c5nc6c(n5C)CCN(CC[C@H]5CC[C@H](C(=O)O)CC5)C6)c4Cl)c3Cl)n2C)C1 [Example 94, trans-4-(2-(2-((2,2′-dichloro-3′-(5-((S)-2-hydroxypropyl)-1-methyl-4,5,6,7-tetrahydro-1H-imidazo[4,5-c]pyridine-2-carboxamido)-[1,1′-biphenyl]-3-yl)carbamoyl)-1-methyl-1,4,6,7-tetrahydro-5H-imidazo[4,5-c]pyridin-5-yl)ethyl)cyclohexane-1-carboxylic acid]
≤ 10	Cn1c(C(=O)Nc2cccc(-c3cccc(NC(=O)c4nc5c(n4C)CCN(C[C@H]4CC[C@@H](C(=O)O)CC4)C5)c3Cl)c2Cl)nc2c1CCN(CCO)C2 [Example 74, cis-4-((2-((2,2′-dichloro-3′-(5-(2-hydroxyethyl)-1-methyl-4,5,6,7-tetrahydro-1H-imidazo[4,5-c]pyridine-2-carboxamido)-[1,1′-biphenyl]-3-yl)carbamoyl)-1-methyl-1,4,6,7-tetrahydro-5H-imidazo[4,5-c]pyridin-5-yl)methyl)cyclohexane-1-carboxylic acid]
≤ 10	Cn1c(C(=O)Nc2cccc(-c3cccc(NC(=O)c4nc5c(n4C)CCN(C[C@H]4CC[C@@H](C(=O)O)CC4)C5)c3Cl)c2Cl)nc2c1CCN(CC1CC1)C2 [Example 71, cis-4-((2-((2,2′-dichloro-3′-(5-(cyclopropylmethyl)-1-methyl-4,5,6,7-tetrahydro-1H-imidazo[4,5-c]pyridine-2-carboxamido)-[1,1′-biphenyl]-3-yl)carbamoyl)-1-methyl-1,4,6,7-tetrahydro-5H-imidazo[4,5-c]pyridin-5-yl)methyl)cyclohexane-1-carboxylic acid]
